Test results reported in PubChem BioAssay AID2060615 (Molecular Pharmacology Branch, DTP, NCI, 2025).
Several values for one entry are separate records, joined by “and”; a condition that tells them apart may be missing. Equal values may be shown once.

Tested on: 496974-208-R-J2-PDC complex spheroids, growth % test/control
Test: Anticancer human tumor 496974-208-R-J2-PDC patient-derived pancreatic carcinoma cell line growth inhibition [CLK]
Conditions: for viability, T/C: stronger effect = lower value
Procedure, shortened: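 Patient-derived tumor cells grown as complex spheroids with HUVEC endothelial cells and mesenchymal stem cells, treated with drug combinations. Concentrations descend in half-log steps from near clinical Cmax, or from 10 microM if Cmax unknown.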

[1] = curve of first compound, second compound 0.0316 µM
[2] = curve of first compound, second compound 0.1 µM
[3] = curve of first compound, second compound 0.316 µM
[4] = curve of first compound, second compound 1 µM
[5] = curve of first compound, second compound 3.16 µM
[6] = curve of first compound, second compound 10 µM
[7] = second compound 0.0316 µM, first compound 0.0316 µM
[8] = second compound 0.0316 µM, first compound 0.1 µM
[9] = second compound 0.0316 µM, first compound 0.316 µM
[10] = second compound 0.0316 µM, first compound 1 µM
[11] = second compound 0.0316 µM, first compound 3.16 µM
[12] = second compound 0.0316 µM, first compound 10 µM
[13] = second compound 0.1 µM, first compound 0.0316 µM
[14] = second compound 0.1 µM, first compound 0.1 µM
[15] = second compound 0.1 µM, first compound 0.316 µM
[16] = second compound 0.1 µM, first compound 1 µM
[17] = second compound 0.1 µM, first compound 3.16 µM
[18] = second compound 0.1 µM, first compound 10 µM
[19] = second compound 0.316 µM, first compound 0.0316 µM
[20] = second compound 0.316 µM, first compound 0.1 µM
[21] = second compound 0.316 µM, first compound 0.316 µM
[22] = second compound 0.316 µM, first compound 1 µM
[23] = second compound 0.316 µM, first compound 3.16 µM
[24] = second compound 0.316 µM, first compound 10 µM
[25] = second compound 1 µM, first compound 0.0316 µM
[26] = second compound 1 µM, first compound 0.1 µM
[27] = second compound 1 µM, first compound 0.316 µM
[28] = second compound 1 µM, first compound 1 µM
[29] = second compound 1 µM, first compound 3.16 µM
[30] = second compound 1 µM, first compound 10 µM
[31] = second compound 3.16 µM, first compound 0.0316 µM
[32] = second compound 3.16 µM, first compound 0.1 µM
[33] = second compound 3.16 µM, first compound 0.316 µM
[34] = second compound 3.16 µM, first compound 1 µM
[35] = second compound 3.16 µM, first compound 3.16 µM
[36] = second compound 3.16 µM, first compound 10 µM
[37] = second compound 10 µM, first compound 0.0316 µM
[38] = second compound 10 µM, first compound 0.1 µM
[39] = second compound 10 µM, first compound 0.316 µM
[40] = second compound 10 µM, first compound 1 µM
[41] = second compound 10 µM, first compound 3.16 µM
[42] = second compound 10 µM, first compound 10 µM
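Also: spheroids exposed to the drugs for 7 days before readout.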
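For viability, T/C in this document: 100% = DMSO vehicle control wells.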

**Q.** What does the source list for `C#Cc1c(F)ccc2cc(O)cc(-c3ncc4c(N5CC6CCC(C5)N6)nc(OCC56CCCN5CC(F)C6)nc4c3F)c12` (configuration not stated) + CN1CCN(c2cc(C(=O)Nc3cc4cc(-c5cnn(C)c5)ccc4cn3)ccn2)CC1?
**A.** IC50 [1]: 49.4 nM; IC50 [2]: < 31.6 nM; IC50 [3]: < 31.6 nM; IC50 [4]: < 31.6 nM; IC50 [5]: < 31.6 nM; IC50 [6]: < 31.6 nM; viability, T/C [7]: 54.9%; viability, T/C [8]: 41.2%; viability, T/C [9]: 39.9%; viability, T/C [10]: 37.2%; viability, T/C [11]: 33.5%; viability, T/C [12]: 35.1%; viability, T/C [13]: 37.7%; viability, T/C [14]: 34.7%; viability, T/C [15]: 30.2%; viability, T/C [16]: 25.8%; viability, T/C [17]: 25.2%; viability, T/C [18]: 22.8%; viability, T/C [19]: 6.34%; viability, T/C [20]: 7.18%; viability, T/C [21]: 5.55%; viability, T/C [22]: 5.05%; viability, T/C [23]: 4.85%; viability, T/C [24]: 4.28%; viability, T/C [25]: 0.24%; viability, T/C [26]: 1.36%; viability, T/C [27]: 0.31%; viability, T/C [28]: 0.34%; viability, T/C [29]: 0.22%; viability, T/C [30]: 0.33%; viability, T/C [31]: 0.26%; viability, T/C [32]: 1.39%; viability, T/C [33]: 0.4%; viability, T/C [34]: 0.27%; viability, T/C [35]: 0.23%; viability, T/C [36]: 1.06%; viability, T/C [37]: 0.28%; viability, T/C [38]: 0.2%; viability, T/C [39]: 0.22%; viability, T/C [40]: 0.2%; viability, T/C [41]: 0.21%; viability, T/C [42]: 1.87%

**Q.** Which results are given for `COc1cccc2c1C(=O)c1c(O)c3c(c(O)c1C2=O)CC(O)(C(=O)CO)CC3OC1CC(N)C(O)C(C)O1` (configuration not stated) + CN1CCN(c2cc(C(=O)Nc3cc4cc(-c5cnn(C)c5)ccc4cn3)ccn2)CC1?
**A.** IC50 [1]: 120 nM; IC50 [2]: 78.5 nM; IC50 [3]: < 31.6 nM; IC50 [4]: < 31.6 nM; IC50 [5]: < 31.6 nM; IC50 [6]: < 31.6 nM; viability, T/C [7]: 68.7%; viability, T/C [8]: 51.4%; viability, T/C [9]: 30.8%; viability, T/C [10]: 3.22%; viability, T/C [11]: 0.57%; viability, T/C [12]: 0.47%; viability, T/C [13]: 59.9%; viability, T/C [14]: 46.6%; viability, T/C [15]: 20.3%; viability, T/C [16]: 2.07%; viability, T/C [17]: 0.59%; viability, T/C [18]: 4.88%; viability, T/C [19]: 7.3%; viability, T/C [20]: 3.63%; viability, T/C [21]: 1.93%; viability, T/C [22]: 0.81%; viability, T/C [23]: 0.45%; viability, T/C [24]: 3.13%; viability, T/C [25]: 0.57%; viability, T/C [26]: 1.13%; viability, T/C [27]: 0.75%; viability, T/C [28]: 0.66%; viability, T/C [29]: 0.36%; viability, T/C [30]: 4.38%; viability, T/C [31]: 0.52%; viability, T/C [32]: 0.84%; viability, T/C [33]: 0.57%; viability, T/C [34]: 0.48%; viability, T/C [35]: 1.77%; viability, T/C [36]: 4.51%; viability, T/C [37]: 0.22%; viability, T/C [38]: 1.44%; viability, T/C [39]: 0.2%; viability, T/C [40]: 0.2%; viability, T/C [41]: 0.21%; viability, T/C [42]: 5.39%

**Q.** Which viability, T/C (compound 0.0316 µM) does the source give for `CC(=O)O[C@H]1C(=O)[C@@]2(C)[C@H]([C@H](OC(=O)c3ccccc3)[C@]3(O)C[C@H](OC(=O)[C@H](O)[C@@H](NC(=O)c4ccccc4)c4ccccc4)C(C)=C1C3(C)C)[C@]1(OC(C)=O)CO[C@@H]1C[C@@H]2O` here?
**A.** The viability, T/C was 34.8%.

**Q.** And the viability, T/C (compound 0.1 µM)?
**A.** Its viability, T/C is 28.4%.

**Q.** And the viability, T/C (compound 0.316 µM)?
**A.** Its viability, T/C is 30.7%.

**Q.** What about the viability, T/C (compound 1 µM) of the same compound?
**A.** The viability, T/C was 27.8%.

**Q.** What about the viability, T/C (compound 3.16 µM) of the same compound?
**A.** The viability, T/C was 38.6%.

**Q.** And the viability, T/C (compound 10 µM)?
**A.** Its viability, T/C is 29.1%.

**Q.** And the IC50 (curve of compound)?
**A.** The IC50 was < 31.6 nM.

**Q.** With `CC(Nc1ccc2c(c1)OCCn1cc(N3C(=O)OCC3C(F)F)nc1-2)C(N)=O` (configuration not stated) as the compound, how does the viability, T/C (compound 0.0316 µM) read?
**A.** The viability, T/C was 89.2% and 89.5%.

**Q.** And the viability, T/C (compound 0.1 µM)?
**A.** Its viability, T/C is 65.6% and 63.4%.

**Q.** And the viability, T/C (compound 0.316 µM)?
**A.** Its viability, T/C is 39.2% and 36.6%.

**Q.** And the viability, T/C (compound 1 µM)?
**A.** The viability, T/C was 18.8% and 22.9%.

**Q.** What about the viability, T/C (compound 3.16 µM) of the same compound?
**A.** The viability, T/C was 13.1% and 14.9%.

**Q.** And the viability, T/C (compound 10 µM)?
**A.** The viability, T/C was 7.32% and 10.9%.

**Q.** And the IC50 (curve of compound)?
**A.** The IC50 was 195 nM and 180 nM.

**Q.** Which results are given for `COc1c(OCCCN2CCOCC2)ccc2c3n(c(=NC(=O)c4cnc(N)nc4)nc12)CCN3` + CNC(=O)c1ccc(Nc2nc(OC3CCCC3)c3c(-c4ccc5nc(C)oc5c4)c[nH]c3n2)c(OC)c1?
**A.** IC50 [1]: 17.4 nM; IC50 [2]: 16.2 nM; IC50 [3]: 11.1 nM; IC50 [4]: 7.96 nM; IC50 [5]: 4.74 nM; IC50 [6]: 3.25 nM; viability, T/C (second compound 0.0316 µM, first compound 0.00316 µM): 88.2%; viability, T/C (second compound 0.0316 µM, first compound 0.01 µM): 68.6%; viability, T/C [7]: 29.4%; viability, T/C [8]: 14.5%; viability, T/C [9]: 9.14%; viability, T/C [10]: 4.1%; viability, T/C (second compound 0.1 µM, first compound 0.00316 µM): 76.9%; viability, T/C (second compound 0.1 µM, first compound 0.01 µM): 64.2%; viability, T/C [13]: 30.2%; viability, T/C [14]: 16.1%; viability, T/C [15]: 12.5%; viability, T/C [16]: 7.78%; viability, T/C (second compound 0.316 µM, first compound 0.00316 µM): 70.3%; viability, T/C (second compound 0.316 µM, first compound 0.01 µM): 53.4%; viability, T/C [19]: 24.8%; viability, T/C [20]: 15.1%; viability, T/C [21]: 11.2%; viability, T/C [22]: 5.48%; viability, T/C (second compound 1 µM, first compound 0.00316 µM): 61.2%; viability, T/C (second compound 1 µM, first compound 0.01 µM): 47.7%; viability, T/C [25]: 27.5%; viability, T/C [26]: 14%; viability, T/C [27]: 12.3%; viability, T/C [28]: 5.46%; viability, T/C (second compound 3.16 µM, first compound 0.00316 µM): 54.4%; viability, T/C (second compound 3.16 µM, first compound 0.01 µM): 42%; viability, T/C [31]: 26.1%; viability, T/C [32]: 16.1%; viability, T/C [33]: 8.87%; viability, T/C [34]: 6.58%; viability, T/C (second compound 10 µM, first compound 0.00316 µM): 50%; viability, T/C (second compound 10 µM, first compound 0.01 µM): 37.7%; viability, T/C [37]: 21.9%; viability, T/C [38]: 12.4%; viability, T/C [39]: 9.58%; viability, T/C [40]: 3.59%

**Q.** How did the viability, T/C (compound 0.0316 µM) turn out when `C=CC(=O)N1CCN(c2nc(=O)n(-c3c(C)ccnc3C(C)C)c3nc(-c4c(O)cccc4F)c(F)cc23)C(C)C1` (configuration not stated) was run?
**A.** The viability, T/C was 112% and 102%.

**Q.** What about the viability, T/C (compound 0.1 µM) of the same compound?
**A.** Its viability, T/C is 108% and 87.1%.

**Q.** And the viability, T/C (compound 0.316 µM)?
**A.** The viability, T/C was 109% and 91.7%.

**Q.** What about the viability, T/C (compound 1 µM) of the same compound?
**A.** Its viability, T/C is 111% and 97.7%.

**Q.** And the viability, T/C (compound 3.16 µM)?
**A.** The viability, T/C was 107% and 108%.

**Q.** What about the viability, T/C (compound 10 µM) of the same compound?
**A.** Its viability, T/C is 86.8% and 80.7%.

**Q.** What about the IC50 (curve of compound) of the same compound?
**A.** The IC50 was > 10000 nM.
